{"source": "patent US20250205186A1", "about": "“USE OF CHLOROGENIC ACID IN PREPARING MEDICINE OR PHARMACEUTICAL COMPOSITION FOR PREVENTING OR TREATING PAIN” (SICHUAN JIUZHANG BIOLOGICAL SCIENCE AND TECHNOLOGY CO., LTD., priority 2019, published 2025)", "key": {"[1]": {"tested_on": "bone cancer pain in rats (Walker rat breast cancer cells, tibia implant model)", "assay": "Mechanical pain hypersensitivity (paw withdrawal threshold) in rat tibia implant bone cancer pain model", "assay_type": "in vivo", "conditions": "for Paw withdrawal threshold compared with the model group: from 5-7 days after administration, p<0.05", "description": "After two SD female rats were intraperitoneally injected with 0.5 mL cancer cells (4×10^4 cells/μL), ascites was collected on the 7th day, and the cells are rinsed 3 times with sterile 0.01 mol/L PBS to adjust to the concentration of 4×10^3 cells/μL for use. 60 SD rats were randomly selected, and after anesthesia, a small 1 cm incision was made in the upper tibial skin. A 10 mL syringe needle was used to puncture and perforate, then a 10 μL syringe was inserted into the bone marrow cavity, and 3 μL cell suspension containing […] Walker rat breast cancer cells was slowly injected. The pinhole was sealed with bone wax, and the skin was sutured. After surgery, the rats were placed on a 37° C. hot plate for rewarming. After recovery, rats were returned to the cage for further breeding, to obtain the model group. In addition, 8 SD rats were randomly selected, and an equal volume of PBS solution was injected into the marrow cavity of the left upper tibia. The rest of the operations were the same as the model group, to obtain the sham operation group. Mechanical pain hypersensitivity: continuous pain measurement was performed from the 10th day after the operation, the contact stimulator's fine fibers were allowed to touch with the middle of the affected side of the rat's plantar, and the force can be increased up to 80 g within 5 seconds. The rat's paw withdrawal respond was observed, and the paw withdrawal threshold was recorded. Each animal was tested 5 times, with an interval of 5 min between two tests. […] The rats that had been successfully modeled were randomly divided into groups, eight rats for each group, that included high-dose chlorogenic acid group (80 mg/kg), middle-dose chlorogenic acid group (40 mg/kg), low-dose chlorogenic acid group (20 mg/kg), model negative group (N.S normal saline), and sham operation group (N.S normal saline). The rats were intraperitoneally injected with drugs for 15 days in a volume of 0.2 mL/10 g, once a day; the model-negative group and the sham operation group were given the same volume of normal saline. From the second day after administration, the mechanical pain hypersensitivity and radiation thermal pain were investigated before each administration, and the paw withdrawal threshold and the pain threshold were recorded."}, "[2]": {"tested_on": "NE", "assay": "NE content in brain tissue by HPLC-EC in bone cancer pain rats", "assay_type": "in vivo, rat", "conditions": "for NE content in the brain tissue: after 15 days of administration", "description": "60 SD rats were randomly selected, and after anesthesia, a small 1 cm incision was made in the upper tibial skin. A 10 mL syringe needle was used to puncture and perforate, then a 10 μL syringe was inserted into the bone marrow cavity, and 3 μL cell suspension containing […] Walker rat breast cancer cells was slowly injected. The pinhole was sealed with bone wax, and the skin was sutured. After surgery, the rats were placed on a 37° C. hot plate for rewarming. After recovery, rats were returned to the cage for further breeding, to obtain the model group. In addition, 8 SD rats were randomly selected, and an equal volume of PBS solution was injected into the marrow cavity of the left upper tibia. The rest of the operations were the same as the model group, to obtain the sham operation group. The rats that had been successfully modeled were randomly divided into groups, eight rats for each group, that included high-dose chlorogenic acid group (80 mg/kg), middle-dose chlorogenic acid group (40 mg/kg), low-dose chlorogenic acid group (20 mg/kg), model negative group (N.S normal saline), and sham operation group (N.S normal saline). The rats were intraperitoneally injected with drugs for 15 days in a volume of 0.2 mL/10 g, once a day; the model-negative group and the sham operation group were given the same volume of normal saline. After the rats were sacrificed, the hypothalamus was quickly separated, homogenized in an ice bath with perchloric acid, and centrifuged. The supernatant was collected, and the contents of NE, DA, and 5-HT were determined by HPLC-EC method (Hou […], Wang Na, et al, Effects of progesterone on morphine-induced conditioned place preference and levels of monoamine transmitters in rat brain. Chinese Journal of Pharmacology, 2006, 22(8), 980-983)."}}, "data": [{"smiles": "O=C(/C=C/c1ccc(O)c(O)c1)O[C@@H]1C[C@](O)(C(=O)O)C[C@@H](O)[C@H]1O", "note": "[Chlorogenic acid]", "values": [{"measurement": "Paw withdraw threshold", "setting": "[1]; 20 mg/kg ip once a day, 2 d", "value": 16.46, "unit": "g"}, {"measurement": "Paw withdraw threshold", "setting": "[1]; 20 mg/kg ip once a day, 3 d", "value": 22.32, "unit": "g"}, {"measurement": "Paw withdraw threshold", "setting": "[1]; 20 mg/kg ip once a day, 4 d", "value": 26.14, "unit": "g"}, {"measurement": "Paw withdraw threshold", "setting": "[1]; 20 mg/kg ip once a day, 5 d", "value": 24.86, "unit": "g"}, {"measurement": "Paw withdraw threshold", "setting": "[1]; 20 mg/kg ip once a day, 6 d", "value": 31.21, "unit": "g"}, {"measurement": "Paw withdraw threshold", "setting": "[1]; 20 mg/kg ip once a day, 7 d", "value": 37.06, "unit": "g"}, {"measurement": "Paw withdraw threshold", "setting": "[1]; 20 mg/kg ip once a day, 8 d", "value": 35.11, "unit": "g"}, {"measurement": "Paw withdraw threshold", "setting": "[1]; 20 mg/kg ip once a day, 9 d", "value": 38.48, "unit": "g"}, {"measurement": "Paw withdraw threshold", "setting": "[1]; 20 mg/kg ip once a day, 10 d", "value": 37.23, "unit": "g"}, {"measurement": "Paw withdraw threshold", "setting": "[1]; 20 mg/kg ip once a day, 11 d", "value": 34.22, "unit": "g"}, {"measurement": "Paw withdraw threshold", "setting": "[1]; 20 mg/kg ip once a day, 12 d", "value": 36.74, "unit": "g"}, {"measurement": "Paw withdraw threshold", "setting": "[1]; 20 mg/kg ip once a day, 13 d", "value": 33.02, "unit": "g"}, {"measurement": "Paw withdraw threshold", "setting": "[1]; 20 mg/kg ip once a day, 14 d", "value": 35.43, "unit": "g"}, {"measurement": "Paw withdraw threshold", "setting": "[1]; 20 mg/kg ip once a day, 15 d", "value": 36.52, "unit": "g"}, {"measurement": "Paw withdrawal threshold compared with the model group", "setting": "[1]; 20 mg/kg", "value": "significant difference"}, {"measurement": "Paw withdraw threshold", "setting": "[1]; 40 mg/kg ip once a day, 2 d", "value": 18.53, "unit": "g"}, {"measurement": "Paw withdraw threshold", "setting": "[1]; 40 mg/kg ip once a day, 3 d", "value": 24.94, "unit": "g"}, {"measurement": "Paw withdraw threshold", "setting": "[1]; 40 mg/kg ip once a day, 4 d", "value": 36.37, "unit": "g"}, {"measurement": "Paw withdraw threshold", "setting": "[1]; 40 mg/kg ip once a day, 5 d", "value": 42.83, "unit": "g"}, {"measurement": "Paw withdraw threshold", "setting": "[1]; 40 mg/kg ip once a day, 6 d", "value": 43.59, "unit": "g"}, {"measurement": "Paw withdraw threshold", "setting": "[1]; 40 mg/kg ip once a day, 7 d", "value": 45.85, "unit": "g"}, {"measurement": "Paw withdraw threshold", "setting": "[1]; 40 mg/kg ip once a day, 8 d", "value": 50.41, "unit": "g"}, {"measurement": "Paw withdraw threshold", "setting": "[1]; 40 mg/kg ip once a day, 9 d", "value": 46.49, "unit": "g"}, {"measurement": "Paw withdraw threshold", "setting": "[1]; 40 mg/kg ip once a day, 10 d", "value": 48.77, "unit": "g"}, {"measurement": "Paw withdraw threshold", "setting": "[1]; 40 mg/kg ip once a day, 11 d", "value": 44.59, "unit": "g"}, {"measurement": "Paw withdraw threshold", "setting": "[1]; 40 mg/kg ip once a day, 12 d", "value": 50.52, "unit": "g"}, {"measurement": "Paw withdraw threshold", "setting": "[1]; 40 mg/kg ip once a day, 13 d", "value": 43.72, "unit": "g"}, {"measurement": "Paw withdraw threshold", "setting": "[1]; 40 mg/kg ip once a day, 14 d", "value": 48.73, "unit": "g"}, {"measurement": "Paw withdraw threshold", "setting": "[1]; 40 mg/kg ip once a day, 15 d", "value": 46.51, "unit": "g"}, {"measurement": "Paw withdrawal threshold compared with the model group", "setting": "[1]; 40 mg/kg", "value": "significant difference"}, {"measurement": "Paw withdraw threshold", "setting": "[1]; 80 mg/kg ip once a day, 2 d", "value": 20.58, "unit": "g"}, {"measurement": "Paw withdraw threshold", "setting": "[1]; 80 mg/kg ip once a day, 3 d", "value": 18.59, "unit": "g"}, {"measurement": "Paw withdraw threshold", "setting": "[1]; 80 mg/kg ip once a day, 4 d", "value": 24.41, "unit": "g"}, {"measurement": "Paw withdraw threshold", "setting": "[1]; 80 mg/kg ip once a day, 5 d", "value": 24.39, "unit": "g"}, {"measurement": "Paw withdraw threshold", "setting": "[1]; 80 mg/kg ip once a day, 6 d", "value": 26.53, "unit": "g"}, {"measurement": "Paw withdraw threshold", "setting": "[1]; 80 mg/kg ip once a day, 7 d", "value": 26.07, "unit": "g"}, {"measurement": "Paw withdraw threshold", "setting": "[1]; 80 mg/kg ip once a day, 8 d", "value": 24.52, "unit": "g"}, {"measurement": "Paw withdraw threshold", "setting": "[1]; 80 mg/kg ip once a day, 9 d", "value": 26.11, "unit": "g"}, {"measurement": "Paw withdraw threshold", "setting": "[1]; 80 mg/kg ip once a day, 10 d", "value": 23.21, "unit": "g"}, {"measurement": "Paw withdraw threshold", "setting": "[1]; 80 mg/kg ip once a day, 11 d", "value": 25.42, "unit": "g"}, {"measurement": "Paw withdraw threshold", "setting": "[1]; 80 mg/kg ip once a day, 12 d", "value": 22.63, "unit": "g"}, {"measurement": "Paw withdraw threshold", "setting": "[1]; 80 mg/kg ip once a day, 13 d", "value": 25.79, "unit": "g"}, {"measurement": "Paw withdraw threshold", "setting": "[1]; 80 mg/kg ip once a day, 14 d", "value": 23.25, "unit": "g"}, {"measurement": "Paw withdraw threshold", "setting": "[1]; 80 mg/kg ip once a day, 15 d", "value": 24.83, "unit": "g"}, {"measurement": "Mechanical paw withdrawal threshold compared with the model group", "setting": "[1]; 80 mg/kg, p>0.05", "value": "not statistically significant"}, {"measurement": "NE content in the brain tissue", "setting": "[2]; 20 mg/kg ip once a day", "value": "0.99 ± 0.18", "unit": "nmol/g"}, {"measurement": "NE content in brain tissue compared with the model-negative group", "setting": "[2]; 20 mg/kg, p<0.05", "value": "the difference was significant"}, {"measurement": "NE content in the brain tissue", "setting": "[2]; 40 mg/kg ip once a day", "value": "0.91 ± 0.15", "unit": "nmol/g"}, {"measurement": "NE content in brain tissue compared with the model-negative group", "setting": "[2]; 40 mg/kg, p<0.05", "value": "the difference was significant"}, {"measurement": "NE content in the brain tissue", "setting": "[2]; 80 mg/kg ip once a day", "value": "1.47 ± 0.26", "unit": "nmol/g"}, {"measurement": "NE content in brain tissue compared with the model-negative group", "setting": "[2]; 80 mg/kg, p>0.05", "value": "no significant difference"}]}]}
